Measurements: PubChem BioAssay AID1963967 (Molecular Pharmacology Branch, DTP, NCI, 2024)
pIC50: −log10 of the molar value.

System: 855422-203-R-J1-PDC spheroids with HUVEC/MSC, viability
Assay: Anticancer human tumor 855422-203-R-J1-PDC patient-derived bladder carcinoma cell line growth inhibition [PI3K]
Conditions: for pIC50: curve of first compound; for viability, T/C: stronger effect = lower value
From the text: Combinatorial screen of targeted agents with the PI3K inhibitors inavolisib, alpelisib, duvelisib, and copanlisib in multi-cell type tumor spheroids
A high-throughput screen of multi-cell type tumor spheroids was designed to identify active combinations of targeted small molecules and PI3K pathway inhibitors. Complex spheroids include a stromal component modeled by human endothelial cells (HUVEC) and fibroblasts modeled by human mesenchymal stem cells (MSCs). The concentration ranges selected for each drug and investigational agent were based upon clinically achievable concentrations if the clinical Cmax of the agent was known.
Compounds. The drugs and investigational agents: inavolisib (NSC800729), alpelisib (NSC765974), duvelisib (NSC772469), copanlisib (NSC816437), ipatasertib (NSC767898), afuresertib (NSC778305), talazoparib (NSC767125), sapanisertib (NSC764658), selumetinib (NSC741078), tovorafenib (DAY101, NSC766906), vemurafenib (NSC761431), ravoxertinib (NSC781343), sotorasib (NSC818433), MRTX1133 (NSC 836407), abemaciclib (NSC 768073), palbociclib (NSC758247), venetoclax (NSC 766270), SY5609 (NSC837396), enzalutamide (NSC755605), and darolutamide (NSC825331), were obtained from the National Cancer Institute (NCI) Developmental Therapeutics Program Chemical Repository. The FDA-approved anticancer drug set is available from the NCI Developmental Therapeutics Program. […] The stock solutions were prepared in dimethyl sulfoxide (DMSO, Sigma-Aldrich, St. Louis, MO, cat. D2650) at 800-fold the tested concentration and stored at -70 degrees C prior to their use. All drugs and investigational agents were tested over a range starting from a high concentration at or near the clinical Cmax and decreasing in half-log increments. If the clinical Cmax for an agent had not been determined, the highest concentration tested was 10 microM.
Cell Culture. All cells were maintained in an incubator at 37 degrees C and 5% CO2 with 95% humidity. The PDC lines were cultured according to standard operating procedures established by the NCI PDMR (https://pdmr.cancer.gov/sops/default.htm). All PDCs were thawed and cultured in Matrigel-coated flasks prepared with a working solution of 1X Ham's F-12 nutrient mix, without supplementation (Invitrogen, Waltham, MA, cat. 11765054), 100 U/mL penicillin-streptomycin (Invitrogen, cat. 15140122), and 2.5% Matrigel (Corning Inc., Corning, NY, cat. 354248) for the first three passages. The 354836-022-R-J1-PDC, 475296-252-R-J1-PDC, and 997726-040-R-J2-PDC lines were cultured in 6A media, which includes advanced DMEM/F-12 (Thermo Fisher Scientific, cat. 12634028), 10 mM HEPES (Thermo Fisher Scientific, cat. 15630080), 1X GlutaMAX supplement (Thermo Fisher Scientific, cat. 35050061), 0.1 mg/mL primocin (InvivoGen, San Diego, CA, cat. ant-pm-2), 10% defined fetal bovine serum, heat inactivated (HyClone Laboratories Inc., Logan, UT, cat. SH30070.03HI), 50% L-WRN conditioned media (ATCC, cat. CRL-3276), 1.25 mM N-Acetyl-L-cysteine (Sigma-Aldrich, cat. A9165), 10 mM nicotinamide (Sigma-Aldrich, cat. N0636), 1X B-27 supplement (Thermo Fisher Scientific, cat. 17504044), 1X N-2 supplement (Thermo Fisher Scientific, cat. 17502048), and 10 microM Y-27632 dihydrochloride (Tocris Bioscience, Bristol, United Kingdom, cat. 1254). The 624824-186-R-J2-PDC line was cultured in 6C/Colon 1B media, which includes all 6A media components plus 50 ng/mL human EGF recombinant protein (Thermo Fisher Scientific, cat. PHG0311). […]

[1] = second compound 0.00316 µM, first compound 0.0316 µM
[2] = second compound 0.00316 µM, first compound 0.1 µM
[3] = second compound 0.01 µM, first compound 0.0316 µM
[4] = second compound 0.01 µM, first compound 0.1 µM
[5] = second compound 0.0316 µM, first compound 0.0316 µM
[6] = second compound 0.0316 µM, first compound 0.1 µM
[7] = second compound 0.1 µM, first compound 0.0316 µM
[8] = second compound 0.1 µM, first compound 0.1 µM
[9] = second compound 0.316 µM, first compound 0.0316 µM
[10] = second compound 0.316 µM, first compound 0.1 µM
[11] = second compound 1 µM, first compound 0.0316 µM
[12] = second compound 1 µM, first compound 0.1 µM
[13] = second compound 0.00316 µM, first compound 0.316 µM
[14] = second compound 0.00316 µM, first compound 1 µM
[15] = second compound 0.00316 µM, first compound 3.16 µM
[16] = second compound 0.00316 µM, first compound 10 µM
[17] = second compound 0.01 µM, first compound 0.316 µM
[18] = second compound 0.01 µM, first compound 1 µM
[19] = second compound 0.01 µM, first compound 3.16 µM
[20] = second compound 0.01 µM, first compound 10 µM
[21] = second compound 0.0316 µM, first compound 0.316 µM
[22] = second compound 0.0316 µM, first compound 1 µM
[23] = second compound 0.0316 µM, first compound 3.16 µM
[24] = second compound 0.0316 µM, first compound 10 µM
[25] = second compound 0.1 µM, first compound 0.316 µM
[26] = second compound 0.1 µM, first compound 1 µM
[27] = second compound 0.1 µM, first compound 3.16 µM
[28] = second compound 0.1 µM, first compound 10 µM
[29] = second compound 0.316 µM, first compound 0.316 µM
[30] = second compound 0.316 µM, first compound 1 µM
[31] = second compound 0.316 µM, first compound 3.16 µM
[32] = second compound 0.316 µM, first compound 10 µM
[33] = second compound 1 µM, first compound 0.316 µM
[34] = second compound 1 µM, first compound 1 µM
[35] = second compound 1 µM, first compound 3.16 µM
[36] = second compound 1 µM, first compound 10 µM
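Also: agents incubated with spheroids for one week before read-out.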
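For viability, T/C in this document: 100% = DMSO vehicle-treated control wells.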

CC(=O)c1c(C)c2cnc(Nc3ccc(N4CCNCC4)cn3)nc2n(C2CCCC2)c1=O + CC(Nc1ccc2c(c1)OCCn1cc(N3C(=O)OCC3C(F)F)nc1-2)C(N)=O
pIC50 (second compound 0.00316 µM): < 7.00 | pIC50 (second compound 0.01 µM): < 7.00 | pIC50 (second compound 0.0316 µM): < 7.00 | pIC50 (second compound 0.1 µM): 7.12 | pIC50 (second compound 0.316 µM): 7.97 | pIC50 (second compound 1 µM): > 9.50 | viability, T/C (second compound 0.00316 µM, first compound 0.000316 µM): 110% | viability, T/C (second compound 0.00316 µM, first compound 0.001 µM): 88.9% | viability, T/C (second compound 0.00316 µM, first compound 0.00316 µM): 109% | viability, T/C (second compound 0.00316 µM, first compound 0.01 µM): 84.1% | viability, T/C [1]: 97.6% | viability, T/C [2]: 74.2% | viability, T/C (second compound 0.01 µM, first compound 0.000316 µM): 99% | viability, T/C (second compound 0.01 µM, first compound 0.001 µM): 87% | viability, T/C (second compound 0.01 µM, first compound 0.00316 µM): 98.3% | viability, T/C (second compound 0.01 µM, first compound 0.01 µM): 86% | viability, T/C [3]: 98% | viability, T/C [4]: 75.8% | viability, T/C (second compound 0.0316 µM, first compound 0.000316 µM): 84.1% | viability, T/C (second compound 0.0316 µM, first compound 0.001 µM): 84% | viability, T/C (second compound 0.0316 µM, first compound 0.00316 µM): 86.3% | viability, T/C (second compound 0.0316 µM, first compound 0.01 µM): 85.1% | viability, T/C [5]: 83.5% | viability, T/C [6]: 60.8% | viability, T/C (second compound 0.1 µM, first compound 0.000316 µM): 72.1% | viability, T/C (second compound 0.1 µM, first compound 0.001 µM): 78.4% | viability, T/C (second compound 0.1 µM, first compound 0.00316 µM): 62.1% | viability, T/C (second compound 0.1 µM, first compound 0.01 µM): 73.7% | viability, T/C [7]: 72% | viability, T/C [8]: 43.2% | viability, T/C (second compound 0.316 µM, first compound 0.000316 µM): 54.2% | viability, T/C (second compound 0.316 µM, first compound 0.001 µM): 51.3% | viability, T/C (second compound 0.316 µM, first compound 0.00316 µM): 57.4% | viability, T/C (second compound 0.316 µM, first compound 0.01 µM): 47.9% | viability, T/C [9]: 44.4% | viability, T/C [10]: 29.9% | viability, T/C (second compound 1 µM, first compound 0.000316 µM): 37% | viability, T/C (second compound 1 µM, first compound 0.001 µM): 36% | viability, T/C (second compound 1 µM, first compound 0.00316 µM): 31.9% | viability, T/C (second compound 1 µM, first compound 0.01 µM): 30.6% | viability, T/C [11]: 31.2% | viability, T/C [12]: 15.4%

CCCS(=O)(=O)Nc1ccc(F)c(C(=O)c2c[nH]c3ncc(-c4ccc(Cl)cc4)cc23)c1F + CC(Nc1ccc2c(c1)OCCn1cc(N3C(=O)OCC3C(F)F)nc1-2)C(N)=O
pIC50 (second compound 0.00316 µM): 5.48 | pIC50 (second compound 0.01 µM): 5.34 | pIC50 (second compound 0.0316 µM): 5.34 | pIC50 (second compound 0.1 µM): 5.45 | pIC50 (second compound 0.316 µM): 6.01 | pIC50 (second compound 1 µM): > 7.50 | viability, T/C [1]: 110% | viability, T/C [2]: 89.8% | viability, T/C [13]: 104% | viability, T/C [14]: 76.1% | viability, T/C [15]: 52.6% | viability, T/C [16]: 0.17% | viability, T/C [3]: 99.2% | viability, T/C [4]: 85.2% | viability, T/C [17]: 91.8% | viability, T/C [18]: 78.5% | viability, T/C [19]: 75.8% | viability, T/C [20]: 0.24% | viability, T/C [5]: 92% | viability, T/C [6]: 79.9% | viability, T/C [21]: 98.7% | viability, T/C [22]: 87.8% | viability, T/C [23]: 72.5% | viability, T/C [24]: 0.18% | viability, T/C [7]: 77.2% | viability, T/C [8]: 82% | viability, T/C [25]: 74.4% | viability, T/C [26]: 72% | viability, T/C [27]: 56.7% | viability, T/C [28]: 0.28% | viability, T/C [9]: 58.9% | viability, T/C [10]: 53.3% | viability, T/C [29]: 54.9% | viability, T/C [30]: 48.9% | viability, T/C [31]: 37.1% | viability, T/C [32]: 0.2% | viability, T/C [11]: 36.7% | viability, T/C [12]: 36.5% | viability, T/C [33]: 34.2% | viability, T/C [34]: 34.8% | viability, T/C [35]: 24.1% | viability, T/C [36]: 0.31%

CNC(=O)c1ccc(N2C(=S)N(c3ccc(C#N)c(C(F)(F)F)c3)C(=O)C2(C)C)cc1F + CC(Nc1ccc2c(c1)OCCn1cc(N3C(=O)OCC3C(F)F)nc1-2)C(N)=O
pIC50 (second compound 0.00316 µM): < 5.00 | pIC50 (second compound 0.01 µM): < 5.00 | pIC50 (second compound 0.0316 µM): < 5.00 | pIC50 (second compound 0.1 µM): < 5.00 | pIC50 (second compound 0.316 µM): 6.58 | pIC50 (second compound 1 µM): > 7.50 | viability, T/C [1]: 106% | viability, T/C [2]: 83.8% | viability, T/C [13]: 95.8% | viability, T/C [14]: 81.2% | viability, T/C [15]: 72.9% | viability, T/C [16]: 65.4% | viability, T/C [3]: 102% | viability, T/C [4]: 91.2% | viability, T/C [17]: 90% | viability, T/C [18]: 77.3% | viability, T/C [19]: 79% | viability, T/C [20]: 72.5% | viability, T/C [5]: 86.6% | viability, T/C [6]: 82.1% | viability, T/C [21]: 79.9% | viability, T/C [22]: 66.6% | viability, T/C [23]: 72.8% | viability, T/C [24]: 64.3% | viability, T/C [7]: 76.9% | viability, T/C [8]: 76.7% | viability, T/C [25]: 83.3% | viability, T/C [26]: 63.1% | viability, T/C [27]: 62% | viability, T/C [28]: 52.8% | viability, T/C [9]: 51.4% | viability, T/C [10]: 46.9% | viability, T/C [29]: 53.6% | viability, T/C [30]: 49.1% | viability, T/C [31]: 52.7% | viability, T/C [32]: 43.1% | viability, T/C [11]: 37.2% | viability, T/C [12]: 36.4% | viability, T/C [33]: 37% | viability, T/C [34]: 41.3% | viability, T/C [35]: 38.5% | viability, T/C [36]: 33.8%
